Results on three substances are retold here after PMC11225074 (Clinical and Translational Medicine, 2024).

Assay [1] has as its system His‐YBX1. The assay is described as follows: Microscale thermophoresis (MST), His-YBX1 wild type. Type of assay: binding. The following applies: PBS (pH 7.4) with 0.05% Tween‐20, peptide 10 nM to 500 µM, NT-647-NHS labelled protein; at least three experiments.
Description: The recombinant plasmids pGEX and pET‐28a expressing GST‐YBX1 and His‐YBX1, respectively, were transformed into E. coli BL21 to generate two recombinant strains pGEX‐GST‐YBX1 and pET‐28a‐His‐YBX1. These strains were inoculated into LB medium and cultured with ampicillin or kanamycin, and isopropylthio‐β‐D‐galactoside at 16°C overnight. Post‐culturing, the cells were collected and sonicated in PBS.
Proteins with labels were dissolved in a solution of PBS (pH 7.4) with 0.05% Tween‐20. […] After incubation, the mixture was moved to silica capillaries and thermophoresis was assessed using a NanoTemper Monolith NT.115 device from NanoTemper Technologies GmbH. Dissociation constant (Kd) values were determined using the law of mass action formula in NanoTemper Analysis 1.5.41 software. All microscale thermophoresis (MST) experiments were conducted at least three times.
Assay [2] concerns Histone H3K4me1 and H3K4me3 peptides. The assay is described as follows: Dot blot of antibody specificity. Type of assay: binding. As to conditions: 1:1000, 16 h at 4°C, nitrocellulose, chemiluminescence. The text has this:
Next, the membranes were washed with 1×TBST in order to eliminate any antibodies that were not bound. Following washing, the membranes were exposed to secondary antibodies that were linked to HRP.

“ART‐Kme0/1/3‐QTARKSTGGKAPRKQL [H3, chemically synthesized unmethylated histone H3 peptide of 20 amino acids (GenScript)]”: in assay [1], the “Binding of His-YBX1 to peptide (MST)” value is listed as “no discernible binding affinity”. With “H3K4me1 antibody: anti‐H3K4me1 (1:1000; Abcam; ab176877)”, the “Antibody specificity towards the corresponding modification” value in assay [2] is “high specificity”. On the same count and under the same terms, then “H3K4me3 antibody: anti‐H3K4me3 (1:1000; Abcam; ab213224)”, with “high specificity”.
